Values of other authors, collected in patent US20030216407A1, “Use of PDE5 inhibitors in the treatment of scarring” (Pfizer Inc., priority 2002, published 2003).

How the values were obtained:
[1] = test system: adult cardiac fibroblasts; conditions: substance on its own
[2] = test system: normal rat kidney fibroblast collagen synthesis; conditions: in vitro
PDE6 against PDE5 = conditions: more potent against PDE6 than against PDE5

Compound | regulating cardiac fibroblast proliferation [1] | collagen synthesis induced by CTGF [2] | potency against PDE6 relative to PDE5 (PDE6 against PDE5)
atrial natriurectic peptide [ANP] | did not on its own regulate | – | –
Nc1nc2c(ncn2[C@@H]2O[C@@H]3COP(=O)(O)O[C@H]3[C@H]2O)c(=O)[nH]1 [cGMP] | – | no effect | –
CCCOc1ccccc1-c1nc2nn[nH]c2c(=O)[nH]1 [zaprinast] | no effect | – | five fold
